“Also recorded” adds a separate entry of the source.
Assays:
[1] = system: FRβ expression on human AML cell lines; test: ATRA treatment of AML cell lines, FRβ surface expression by flow cytometry; assay type: cell-based; conditions: 10 nM ATRA
Protocol: (§1) AML cell lines were plated on d0 at 2.5×10^5 per mL in complete media with final concentration 10 nM ATRA. On d3 fresh media with 10 nM ATRA was added to keep cells at 2.5×10^5 per mL. On d5 viable AML cells were washed and counted with trypan blue exclusion. Cells were then stained for FRβ surface expression and analyzed by flow cytometry, processed for RNA extraction, or used in co-cultures for functional assays.
Tumor cell surface expression of FRβ was detected by m909-IgG antibody (Dimiter Dimitrov) conjugated to biotin (EZ-Link Biotinylation Kit, Thermo). To block Fc receptor binding, tumor cells were incubated with 50 ug/mL unlabeled human IgG (Jackson ImmunoResearch) for 10 min. 3-5 ug/mL m909-biotin or human IgG-biotin isotype control was added, and cells were labeled for 30 min at 4 degrees, washed with FACS buffer, and labeled with Streptavidin-APC (BD) for 25 min at 4 degrees. Cells were washed, resuspended with 7AAD, and analyzed by flow cytometry.

[2] = system: ATRA-treated THP1; test: CAR T cell recognition of ATRA-treated AML cell lines (cytokine release); assay type: cell-based, human; conditions: 10 nM ATRA
Protocol: These assays were performed by co-culture of 10^5 CAR+ T cells with 10^5 target cells per well (or media alone) in triplicate in 96-well plates in a 200 μL volume of complete media. After ˜24 hours, plates were centrifuged at 1200 RPM to pellet the cells, and co-culture supernatants were removed and assayed for the presence of IFN-γ by ELISA (Biolegend). Values represent the mean of triplicate wells. IL-2, IL-4, IL-10, IFN-γ, and TNF-α cytokines were measured by flow cytometry with Cytometric Bead Array (BD Biosciences). The cell pellets were then labeled with antibodies for CD3 and CD69, and assessed by flow cytometry. Live, CD3+ gates were used for analysis of CD69 upregulation. For m909 CAR T cells, GFP was used as a marker for CAR+ cells. In some cases cell pellets were labeled for FRβ surface expression following co-cultures.
as §1, with “On d3 fresh media with 10 nM ATRA was added to keep cells at 2.5×10^5 per mL.” left out
Cell lines and CAR+ T cells were prepared as above (for cytokine release assays). […] Culture supernatants were then collected and analyzed for cytokines as described.

CC1=C(/C=C/C(C)=C/C=C/C(C)=C/C(=O)O)C(C)(C)CCC1 [ATRA, all-trans retinoic acid]
FRβ expression on AML cells [1]: enhanced the intensity of FRβ expression on the AMLs; also recorded: increases FRβ expression; also recorded: enhanced surface expression of FRβ; also recorded: induced FRβ upregulation | IFNγ secretion by CAR T cells towards ATRA-treated AML cells [2]: enhances; also recorded: IFNγ production | immune recognition of ATRA-treated AML cells by FRβ CAR T cells [2]: increased immune recognition by FRβ CAR T cells; also recorded: increased immune recognition by m909 CAR T cells; also recorded: enhances FRβ-mediated m909 CAR T cell recognition; also recorded: increases immune recognition

Reference: US9446105B2, “Chimeric antigen receptor specific for folate receptor β” (THE TRUSTEES OF THE UNIVERSITY OF PENNSYLVANIA, priority 2013, dated 2016)
